Consider 65 compounds from patent publication US10501435B2, “Substituted quinazoline compounds and uses thereof for modulating glucocerebrosidase activity” (Northwestern University, priority 2015, dated 2019).

Sequence of Glucocerebrosidase (P04062 40-536): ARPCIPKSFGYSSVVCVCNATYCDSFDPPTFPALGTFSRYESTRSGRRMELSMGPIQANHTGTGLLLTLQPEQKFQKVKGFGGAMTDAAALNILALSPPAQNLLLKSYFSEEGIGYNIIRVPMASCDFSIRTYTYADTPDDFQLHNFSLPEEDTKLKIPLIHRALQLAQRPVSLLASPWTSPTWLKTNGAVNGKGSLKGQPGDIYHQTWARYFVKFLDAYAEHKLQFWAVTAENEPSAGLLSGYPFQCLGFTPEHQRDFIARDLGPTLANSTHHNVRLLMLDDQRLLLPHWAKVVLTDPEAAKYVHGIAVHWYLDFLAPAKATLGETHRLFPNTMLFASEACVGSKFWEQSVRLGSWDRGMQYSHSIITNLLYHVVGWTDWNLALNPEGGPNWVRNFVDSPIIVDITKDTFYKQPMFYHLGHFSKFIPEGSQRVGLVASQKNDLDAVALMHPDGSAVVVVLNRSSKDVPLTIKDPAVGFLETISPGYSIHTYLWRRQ

One assay concerns the target Glucocerebrosidase (Homo sapiens (Human), UniProt P04062). Kind of assay: Glucocerebrosidase activity assay with blue substrate (4MU-Glc). It is filed as biochemical. Particulars: cells marked (act). How it is done: The compounds in DMSO solution 0.5 μL/well were transferred to a black 96-well plate. The final titration was 24 nM to 50 μM, 12 concentrations, 2 times dilution. […] After 5 min of incubation at room temperature, the enzyme reaction was initiated by the addition of 33 μL/well blue substrate. Final concentrations of the blue substrate (4MU-Glc) was 1.5 mM. The blue substrate reaction was terminated by the addition of 33 μL/well stop solution (1 M NaOH and 1 M glycine mixture, pH 10) after 30 min of incubation at 37° C. The fluorescence was then measured in the Biotek Synergy H1 multi-mode plate reader with Ex=365 nm and Em=440 nm.
Additional compounds were prepared and tested according to the procedures provided in the examples above.
Additional substituted quinazoline compounds were prepared and tested according to the procedures provided in the examples above.
Turning to `Nc1nc(-c2cccnc2)nc2ccccc12` [compound 35], the “IC50 or AC50 (μM): AC50 (act)” value is recorded as “Weak (act)”.

For `[N-]=[N+]=Nc1c(F)c(F)c(CNc2nc(-c3cccnc3)nc3ccccc23)c(F)c1F` [compound 37], the “IC50 or AC50 (μM): AC50 (act)” value is “Weak (act)”. The same measure, in the same setting: the entry for `CN1CCN(c2ccc(C(=O)N3CCN(c4nc(-c5cccnc5)nc5ccccc45)CC3)cc2)CC1` [compound 38] is “Weak (act)”; for `c1ccc(Nc2nc(-c3cccnc3)nc3ccccc23)cc1` [compound 50] it is “Weak (act)”; for `CC(C)(C)Nc1nc(-c2cccnc2)nc2ccccc12` [compound 54] it is “Weak (act)”.

As to `c1ccc(C2CCCN(c3nc(-c4cccnc4)nc4ccccc34)C2)cc1` (centres unmarked) [compound 82], the “IC50 or AC50 (μM): AC50 (act)” value is “Weak (act)”.

The same assay, now with this note: cells marked (act); read-out: IC50 or AC50 (μM): AC50 (act).
As a reminder, the AC50 is the concentration giving half of the maximal activity seen. Take `CN(CC1COc2ccccc2O1)c1nc(-c2cccnc2)nc2ccccc12` (centres unmarked) [compound 3]: the AC50 was found to be 1.78 µM. `CN(Cc1ccccn1)c1nc(-c2cccnc2)nc2ccccc12` [compound 5]: the AC50 was 35.5 µM. On to `CN(CC1COCCO1)c1nc(-c2cccnc2)nc2ccccc12` (centres unmarked) [compound 6], for which the AC50 was 11.2 µM. Regarding `CN(Cc1cccnc1)c1nc(-c2cccnc2)nc2ccccc12` [compound 7], the AC50 amounted to 12.6 µM. `CN(Cc1ccncc1)c1nc(-c2cccnc2)nc2ccccc12` [compound 8]: the AC50 was 15.8 µM. For the compound `CN(Cc1cnccn1)c1nc(-c2cccnc2)nc2ccccc12` [compound 9], the concentration at half-maximal activity (AC50) amounted to 14.1 µM. Turning to `CN(Cc1cnc2ccccc2n1)c1nc(-c2cccnc2)nc2ccccc12` [compound 10], the AC50 came to 0.89 µM. With `CN(Cc1ccc2c(c1)OCO2)c1nc(-c2cccnc2)nc2ccccc12` [compound 11], the AC50 was determined as 1 µM. The same measure, in the same setting: the figure for `CN1Cc2ccc(CN(C)c3nc(-c4cccnc4)nc4ccccc34)cc2C1` [compound 13] is 44.7 µM.

Regarding `CN(Cc1nc2ccccc2s1)c1nc(-c2cccnc2)nc2ccccc12` [compound 14], the AC50 was found to be 1.12 µM.

For the compound `COc1ccccc1CN(C)c1nc(-c2cccnc2)nc2ccccc12` [compound 16], the AC50 is 3.13 µM. As for `CN(Cc1ccc2ccccc2c1)c1nc(-c2cccnc2)nc2ccccc12` [compound 17], the AC50 is 1.56 µM. For `CN(Cc1nc2ccccc2o1)c1nc(-c2cccnc2)nc2ccccc12` [compound 18], the AC50 is 11.2 µM. On to `CN(Cc1ccc2c(c1)OCCO2)c1nc(-c2cccnc2)nc2ccccc12` [compound 19], for which the AC50 stood at 3.98 µM. On to `CN(Cc1ccc2nsnc2c1)c1nc(-c2cccnc2)nc2ccccc12` [compound 21], for which the AC50 was found to be 3.55 µM. Same read-out and setting: then `CC(C)(C)OC(=O)N1CCN(c2nc(-c3cccnc3)nc3ccccc23)CC1` [compound 22], with 10 µM; and `CN(Cc1scc2c1OCCO2)c1nc(-c2cccnc2)nc2ccccc12` [compound 24], with 2 µM; and `CC(C)Cc1noc(CN(C)c2nc(-c3cccnc3)nc3ccccc23)n1` [compound 25], with 35.5 µM. As to `Cc1ccc(S(=O)(=O)N2CCN(c3nc(-c4cccnc4)nc4ccccc34)CC2)cc1` [compound 26], the AC50 was 1 µM. `c1cncc(-c2nc(NCCC3COc4ccccc4O3)c3ccccc3n2)c1` (centres unmarked) [compound 27]: the AC50 came to 0.6 µM. Consider `CCN(CC1COc2ccccc2O1)c1nc(-c2cccnc2)nc2ccccc12` (centres unmarked) [compound 28], for which the concentration at half-maximal activity (AC50) was 2.82 µM.

Regarding `c1cncc(-c2nc(N3CCN(CC4COc5ccccc5O4)CC3)c3ccccc3n2)c1` (centres unmarked) [compound 30], the AC50 was found to be 3.13 µM. The same measure, in the same setting: the figure for `CN(Cc1ccc(-n2ccnc2)cc1)c1nc(-c2cccnc2)nc2ccccc12` [compound 31] is 19.9 µM; for `CN(CCC1COc2ccccc2O1)c1nc(-c2cccnc2)nc2ccccc12` (centres unmarked) [compound 32] it is 3.16 µM. Same read-out and setting: then `CN1CCN(c2ccc(CNc3nc(-c4cccnc4)nc4ccccc34)cc2)CC1` [compound 36], with 39.8 µM; and `CN(c1nc(-c2cccnc2)nc2ccccc12)C1CCCCC1` [compound 56], with 5.01 µM. On the same count and under the same terms, the figure for `CN(CCc1cccc(F)c1)c1nc(-c2cccnc2)nc2ccccc12` [compound 59] is 4.47 µM. Take `c1cncc(-c2nc(N3C4CCC3CC4)c3ccccc3n2)c1` [compound 64]: the AC50 came to 2.24 µM. On to `Nc1ccc(CCNc2nc(-c3cccnc3)nc3ccccc23)cc1` [compound 71], for which the AC50 amounted to 2 µM.

Take `c1ccc(CC2CCCCN2c2nc(-c3cccnc3)nc3ccccc23)cc1` (centres unmarked) [compound 83]: the AC50 was 2.24 µM. Still for that read-out and setting: the figure for `c1ccc(CC2CCCN(c3nc(-c4cccnc4)nc4ccccc34)C2)cc1` (centres unmarked) [compound 87] is 2.51 µM.

Staying with this assay, now noted: cells marked activator.
Turning to `CN(c1nc(-c2cccnc2)nc2ccccc12)C1Cc2ccc(C#CCCCCCCCCC(=O)ON3C(=O)CCC3=O)cc2C1` (centres unmarked) [compound 105], the “Activity AC50 or IC50 (μM unless nM indicated): AC50, activator” value (shortened to “Activity AC50 or IC50”) is “Weak activator”. `COC(=O)CCCCCCCCC#Cc1ccc(OCCN(C)c2nc(-c3cccnc3)nc3ccccc23)cc1` [compound 109]: the “Activity AC50 or IC50” value is “Weak activator”. Regarding `CN(CCOc1ccc(C#CCOCCOCCNc2nc(-c3cccnc3)nc3ccccc23)cc1)c1nc(-c2cccnc2)nc2ccccc12` [compound 110], the “Activity AC50 or IC50” value is on record as “Weak activator”. In the case of `CN(CCCCCCCCCCN(C)c1nc(-c2cccnc2)nc2ccccc12)c1nc(-c2cccnc2)nc2ccccc12` [compound 112], the “Activity AC50 or IC50” value was “Weak activator”.

Take `c1cncc(-c2nc(N3CCCOCC3)c3ccccc3n2)c1` [compound 116]: the “Activity AC50 or IC50” value is given as “Weak activator”. Take `CN(c1nc(-c2cccnc2)nc2ccccc12)C1CCCCCCC1` [compound 123]: the “Activity AC50 or IC50” value is “Weak activator”. Same read-out and setting: then `CN(CCOc1ccccc1)c1nc(-c2ccccn2)nc2ccccc12` [compound 143], with “Weak activator”; and `CN(CCOc1ccc(C#CCCCCCCCCC(=O)ON2C(=O)CCC2=O)cc1)c1nc(-c2cccnc2)nc2ccccc12` [compound 153], with “activator”.

Still in this assay, the particulars now being: cells marked activator; read-out: Activity AC50 or IC50 (μM unless nM indicated): AC50, activator.
Take `Cc1ccc(OCCNc2nc(-c3cccnc3)nc3ccccc23)cc1` [compound 90]: the AC50 amounted to 0.62 µM. For `CN(CCOc1ccc(C#CCCCCCCC#Cc2ccc(OCCN(C)c3nc(-c4cccnc4)nc4ccccc34)cc2)cc1)c1nc(-c2cccnc2)nc2ccccc12` [compound 111], the half-maximal activity concentration (AC50) came out at 35 µM. With `C#CCOCCOCCNc1nc(-c2cccnc2)nc2ccccc12` [compound 113], the AC50 is 12.6 µM. Same read-out and setting: then `c1cncc(-c2nc(N3CCOc4ccccc4C3)c3ccccc3n2)c1` [compound 115], with 7.94 µM. Take `COC(=O)CCCCCCCCCCc1ccc(OCCN(C)c2nc(-c3cccnc3)nc3ccccc23)cc1` [compound 117]: the AC50 turned out to be 7.08 µM. On the same count and under the same terms, then `CN(c1nc(-c2cccnc2)nc2ccccc12)C1CCCC1` [compound 118], with 22.4 µM. As for `CN(CCCCc1ccccc1)c1nc(-c2cccnc2)nc2ccccc12` [compound 120], the AC50 came to 3.16 µM. For `CN(c1nc(-c2cccnc2)nc2ccccc12)C1CCCCCC1` [compound 121], the AC50 is 8.91 µM. As for `CN(CCc1ccccc1)c1nc(-c2cccnc2)nc2ccccc12` [compound 122], the AC50 was 5.01 µM. In the case of `CN(CCOc1ccccc1)c1nc(Cl)nc2ccccc12` [compound 124], the AC50 is 10 µM. Regarding `CN(CCOc1ccccc1)c1nc(-c2cncnc2)nc2ccccc12` [compound 127], the AC50 was 1.25 µM. For `CN(CCOc1ccccc1)c1nc(-c2ccccc2F)nc2ccccc12` [compound 128], the AC50 was 1.25 µM.

Regarding `CN(CCOc1ccccc1)c1nc(-c2ccncc2)nc2ccccc12` [compound 130], the AC50 amounted to 3.98 µM. As to `CN(CCOc1ccccc1)c1nc(-c2ccco2)nc2ccccc12` [compound 133], the AC50 was found to be 31.6 µM. On the same count and under the same terms, then `CN(CCOc1ccccc1)c1nc(-c2ccoc2)nc2ccccc12` [compound 134], with 0.65 µM; and `COc1ccccc1OCCN(C)c1nc(-c2cccnc2)nc2ccccc12` [compound 135], with 22.4 µM. On to `Cc1ccc(OCCN(C)c2nc(-c3cccnc3)nc3ccccc23)cc1` [compound 136], for which the AC50 was determined as 3.55 µM. The same measure, in the same setting: the figure for `CN(CCCOc1ccccc1)c1nc(-c2cccnc2)nc2ccccc12` [compound 137] is 5.01 µM; for `CC(CN(C)c1nc(-c2cccnc2)nc2ccccc12)Oc1ccccc1` (centres unmarked) [compound 138] it is 5.62 µM.

With `CC(COc1ccccc1)N(C)c1nc(-c2cccnc2)nc2ccccc12` (centres unmarked) [compound 139], the half-maximal activity concentration (AC50) was 5.62 µM.
